The experiment relates to SD rats. The experiment can be described thus: Inhibition of postprandial blood glucose rise per saccharide (sucrose load). The class given is in vivo, rat. As to conditions: 100 mg/kg oral with 2 g/kg sucrose, control 207.8. As to the method: To SD rats, 100 mg/kg (based on body weight) of each of standard substances from monosaccharide to tetra-saccharide and 2 g/kg (based on body weight) of sucrose were orally administered by 1 ml/rat using an oral administration sonde. At 30 minutes, 60 minutes and 120 minutes after the oral administration, blood was collected from the tail vein of each SD rat and a change in blood glucose concentration in venous blood was measured using a blood glucose meter (CareSens II).
Turning to `N[C@H]1[C@H](O[C@H]2[C@H](O)[C@@H](N)C(O)O[C@@H]2CO)O[C@H](CO)[C@@H](O)[C@@H]1O` (stereo partly drawn) [disaccharide], the “blood glucose at 30 minutes after the meal” value (shortened to “blood glucose at 30 minutes”) turned out to be 177.6 mg/dL.
In the case of `N[C@H]1C(O)O[C@H](CO)[C@@H](O)[C@@H]1O` (stereo partly drawn) [monosaccharide], the “blood glucose at 30 minutes” value stood at 210.7 mg/dL.
As for `N[C@H]1[C@H](O[C@H]2[C@H](O)[C@@H](N)[C@H](O[C@H]3[C@H](O)[C@@H](N)C(O)O[C@@H]3CO)O[C@@H]2CO)O[C@H](CO)[C@@H](O)[C@@H]1O` (stereo partly drawn) [trisaccharide], the “blood glucose at 30 minutes” value was 179.4 mg/dL.

These data come from patent US20140228314A1, “METHOD FOR PREPARATION OF CHITOSAN OLiGOSACCHARIDES COMPOSITION AND MIXTURE OF CHITOSAN OLiGOSACCHARIDES PREPARED THEREFROM” (KUNPOONG BIO CO., LTD, priority 2013, published 2014).
